The results in this text go back to US10828272B2, “Means to facilitate food intake and food retention” (Chardon Group B.V., priority 2012, dated 2020).

Counter-ions that a name gives are not always drawn.

The test has as its system Wistar rats. The test is described as follows: Food intake test (30 min, living mealworms) in non-deprived rats. The class given is in vivo, rat. The note with it: for Dose needed for effect on food intake in this procedure (conclusion): into esophagus. The source says:
In the following examples food intake tests were run with cohorts of 32 Wistar rats having food intake sessions in two groups of 16 rats in parallel. There were 8 rats per experimental group. The rats weighed in the range of 260-370 grams. Rats were acclimatized to the housing conditions in our laboratory for at least one week after arrival from the breeder. The rats were housed in pairs in Macrolon cages of 42×26 cm and 15 cm high, with standard food and water available ad libitum. The day-night cycle was not reversed (lights on at 7:00 AM, off 19:00 PM). Food intake tests were run in the same room wherein the rats were housed in the light period of the diurnal cycle of the rats. In a further period the rats were habituated to human handling and to the manner of presentation of mealworms in the food intake tests. Food intake was measured with rats without food deprivation. Food intake tests were done by placing the rats from their home cage individually into clean Macrolon (42×26×15 cm) cages without bedding. A weighed amount of at least 15-20 g living mealworms in a petri dish was placed in the middle of the cage and rats were allowed 30 minutes for eating mealworms. During the 30 minute test for food intake no drinking water was available. Injection treatments were administered at determined times before the food intake test. After drug administration the rats were returned to their home cage. Both rats of a pair in a living cage were assigned to the same treatment groups. Otherwise allocation of rats to experimental groups was done such that the treatments were equally and randomly spread over the duration of an experiment. The experimenter remained in the test room for the duration of an experiment. This allowed observation of general behavioural effects of the treatments. Abnormalities were recorded.
For drug administration commercially available stock solutions in vials were used: • lidocainehydrochloride 20 mg/ml injection fluid (Fresenius Kabi); procainamidehydrochloride 100 mg/ml injection fluid (Apotheek Haagse Ziekenhuizen); • ropivacainehydrochloride 7.5 mg/ml injection fluid (Fresenius Kabi); • metoclopramine (Sigma) was weighed and dissolved for use.
Drugs were administered in volumes of 1 ml/kg rat.
Vehicle: for local anesthetics the commercial physiological saline solutions for injection were used directly or the solution was diluted with distilled water. Alginate for a 2% viscous alginate solution was added 18 hours before use of the solution for injection. The solution was prepared to a viscous solution by allowing 18 hours of slow mechanical mixing.
For administration of the drug into the lumen of the esophagus the injection fluid was administered by entering a thick needle with rounded tip via, and into the esophagus just above the lower esophageal sphincter and retreating during injection to release the volume to be injected just behind the pharynx.
For administration into the stomach a similar 1 mm thick needle with a 2 mm tip and 60 mm length was introduced into the stomach via the esophagus as customary for oral administration in rats.
For administration subcutaneously (sc) the injection fluid was injected with a sharp thin needle under the skin in the neck.

`CCN(CC)CC(=O)Nc1c(C)cccc1C` [Lidocaine•HCl, lidocainehydrochloride]: the “Grams of mealworms eaten (AVG)” value worked out at 14.85 grams (Example 1, 1 mg/kg into esophagus, 30 minutes before test); 14.46 grams (Example 1, 3 mg/kg into esophagus, 30 minutes before test); 14.54 grams (Example 1, 10 mg/kg into esophagus, 30 minutes before test); 16.91 grams (Example 2, 20 mg/kg esophagus, 15 minutes before test); 17.14 grams (Example 2, 20 mg/kg esophagus, 30 minutes before test); 16.28 grams (Example 2, 20 mg/kg stomach, 30 minutes before test). Moreover, the “Effect on food intake, esophagus compared with stomach (conclusion)” value (Example 2, 20 mg/kg, application in the esophagus versus into the stomach) is “more effective”. The “Effect on food intake (conclusion)” value (Example 2, dose of 20 mg/kg) was “effective”. In addition, the “Dose needed for effect on food intake in this procedure (conclusion)” value (“Dose needed for effect on food intake” below) (30 minutes before test) is “above 10 mg/kg”.

As to `CCN(CC)CCNC(=O)c1ccc(N)cc1` [Procainamide, procainamidehydrochloride], the “Grams of mealworms eaten (AVG)” value worked out at 12.11 grams (Example 3, 20 m/kg esophagus, 30 minutes before test) and 10.55 grams (Example 4, 100 m/kg esophagus, 30 minutes before test). In addition, under “30 minutes before test”, the “Dose needed for effect on food intake” value is given as “higher than 20 mg/kg”.

With `CCCN1CCCC[C@H]1C(=O)Nc1c(C)cccc1C.Cl` [Ropivacaine, ropivacainehydrochloride], the “Grams of mealworms eaten (AVG)” value is, setting by setting: (Example 3, 1.25 mg/kg esophagus, 30 minutes before test) 13.40 grams; (Example 4, 3.75 mg/kg esophagus, 30 minutes before test) 12.08 grams; (Example 4, 7.5 mg/kg esophagus, 30 minutes before test) 13.58 grams; (Example 5, 7.5 mg/kg esophagus) 13.24 grams; (Example 5, 7.5 mg/kg stomach) 10.72 grams; (Example 5, 11.25 mg/kg esophagus) 14.44 grams. In addition, the “Effect on food intake (conclusion)” value (Example 4, 7.5 mg/kg in the esophagus) is “enhanced food intake”. In addition, the “Effect on meal size (conclusion)” value (Example 5, 7.5 mg/kg and 11.25 mg/kg in the esophagus) is on record as “effective in increasing meal size”. Moreover, the “Dose needed for effect on food intake” value (30 minutes before test) is “higher than 1.25 mg/kg”.

For `CCN(CC)CCNC(=O)c1cc(Cl)c(N)cc1OC` [metoclopramide], the “Grams of mealworms eaten (AVG)” value is, setting by setting: (Example 6, 3 mg/kg sc, 30 minutes before test) 11.86 grams; (Example 6, 10 mg/kg sc, 30 minutes before test) 1.25 grams; (Example 6, 30 mg/kg sc, 30 minutes before test) 0.22 grams; (Example 7, 0.1 mg/kg sc, 30 minutes before test) 13.51 grams; (Example 7, 0.3 mg/kg sc, 30 minutes before test) 12.23 grams; (Example 7, 1 mg/kg sc, 30 minutes before test) 15.76 grams. Moreover, the “Effect on food intake (conclusion)” value is on record as “inhibits food intake” (Example 6, subcutaneously at doses above 3 mg/kg); “ineffective” (Example 7, 0.1 and 0.3 mg/kg subcutaneously); “increases food intake” (Example 7, subcutaneous injection of 1 mg/kg).
